The source of these data is patent US20130165489A1, “Small Molecule Modulators of HIV-1 Capsid Stability and Methods Thereof” (The Trustees of the University of Pennsylvania, priority 2010, published 2013).

“Also recorded” adds a separate entry of the source.

The test system of series [1] is HIV-1IIIB. Briefly: Anti-HIV efficacy in P4-R5 MAGI cells. In kind it is cell-based. The method, then:
P4-R5 MAGI cells (NIH AIDS Research & Reference Reagent Program, catalog #3580) were maintained in Dulbecco's Modified Eagle's Media (DMEM) supplemented with 10% fetal bovine serum (FBS), sodium bicarbonate (0.05%), antibiotics (penicillin, streptomycin, and kanamycin at 40 μg/mL each), and puromycin (1 μg/mL). Initial studies were performed using the HIV-1-susceptible P4-R5 MAGI reporter cell line. HIV-1 infection of these cells (which express CD4, CXCR4, and CCR5) results in LTR-directed β-galactosidase expression, which can be readily and accurately quantitated. Approximately 18 h prior to the experiment, P4-R5 MAGI cells were plated at a concentration of 1.2×10^4 cells/well in a flat-bottom 96-well plate. On the day of the experiment, cells were infected in quadruplicate with HIV-1 strain IIIB (Advanced Biotechnologies, Inc., Columbia, Md.) in the presence or absence of putative CA inhibitors at the indicated concentrations. After 48 h incubation at 37° C., cells were assayed for infection using the Galacto-Star One-Step β-Galactosidase Reporter Gene Assay System (Applied Biosystems, Bedford, Mass.).

Series [2] relates to HIV-1 92BR030 (subtype B clinical isolate). Briefly: Anti-HIV efficacy in human PBMCs, isolate 92BR030. In kind it is cell-based. Conditions: primary PBMCs. The method, then:
HIV human peripheral blood mononuclear cell (PBMC) assays were performed as described previously (Lanier et al., 2010, Antimicrob. Agents Chemother. 54:2901-09; Ptak et al., 2008, Antimicrob. Agents Chemother. 52:1302-17). Briefly, fresh PBMCs, seronegative for HIV and hepatitis B virus (HBV), were isolated from blood samples of the screened donors (Biological Specialty Corporation, Colmar, Pa.) by using lymphocyte separation medium (LSM; density, 1.078±0.002 g/ml; Cellgro; Mediatech, Inc.) by following the manufacturer's instructions. Cells were stimulated by incubation in 4 μg/mL phytohemagglutinin (PHA; Sigma) for 48 to 72 h. Mitogenic stimulation was maintained by the addition of 20 U/mL recombinant human interleukin-2 (rhIL-2; R&D Systems, Inc.) to the culture medium. PHA-stimulated PBMCs from at least two donors were pooled, diluted in fresh medium, and added to 96-well plates at 5×10^4 cells/well. Cells were infected (final multiplicity of infection [MOI] of ≅0.1) in the presence of 9 different concentrations of test compounds (triplicate wells/concentration) and incubated for 7 days. To determine the level of virus inhibition, cell-free supernatant samples were collected for analysis of reverse transcriptase activity (Buckheit Jr., et al., 1991, AIDS Res. Hum. Retroviruses 7:295-302). Following removal of supernatant samples, compound cytotoxicity was measured by the addition of 3-(4,5-dimethylthiazol-2-yl)-5-(3-carboxymethoxyphenyl)-2-(4-sulfophenyl)-2H-tetrazolium (MTS; CellTiter 96 reagent; Promega) by following the manufacturer's instructions.
79:6089-6101; Jagodzinski et al., 2000, J. Clin. Microbiol. 38:1247-49; Michael et al., 1999, J. Clin. Microbiol. 37:2557-63 and Vahey et al., 1999, J. Clin. Microbiol. 37:2533-37); HIV-1 Group M isolate 931N101 (Subtype C, CCR5-tropic) from Dr. Robert Bollinger and the UNAIDS Network for HIV Isolation and Characterization (Gao et al., 1994, AIDS Res. Hum. Retroviruses 10:1359-68); HIV-1 Group M isolate CMUO8 (Subtype E, CXCR4-tropic) from Dr. Kenrad Nelson and the UNAIDS Network for HIV Isolation and Characterization (Gao et al., 1994, AIDS Res. Hum. Retroviruses 10:1359-68); HIV-1 Group M isolate G3 (Subtype G, CCR5-tropic) from Alash'le Abimiku (Abimiku et al., 1994, Aids Res. Hum. Retrovir. 10:1581-83); HIV-1 Group 0 isolate BCF02 (CCR5-tropic) from Sentob Saragosti, Françoise Brun-Vézinet, and François Simon (Loussertajaka et al., 1995, J. Virol. 69:5640-49); and SIV isolate Mac251 from Dr. Ronald Desrosiers (Daniel et al., 1985, Science 228:1201-04).

Series [3] deals with DENV (serotypes 1-4). Briefly: CPE assay, Dengue serotypes 1-4. The class given is cell-based, Dengue virus. To be noted: Dengue virus; Vero cells; read-out: average half-maximal inhibitory concentration over DENV serotypes 1-4.
In series [4] the test system is DENV1. Briefly: CPE assay, DENV1. In kind it is cell-based. To be noted: Dengue virus, DENV1, Vero C1008; Vero E6 cells; 3 replicates.
The subject of series [5] is DENV2. As to the kind of experiment: CPE assay, DENV2. In kind it is cell-based. To be noted: Dengue virus, DENV2, Vero C1008; Vero E6 cells; 3 replicates.
Series [6] relates to DENV3. As to the kind of experiment: CPE assay, DENV3. The class given is cell-based. Conditions: Dengue virus, DENV3, Vero C1008; Vero E6 cells; 3 replicates.
Series [7] relates to DENV4. As to the kind of experiment: CPE assay, DENV4. Conditions: Dengue virus, DENV4, Vero C1008; Vero E6 cells; 3 replicates. The class given is cell-based.
Series [8] has as its system RSV. Briefly: CPE assay, RSV. In kind it is cell-based, respiratory syncytial virus.
Series [9] is described as follows: in vitro. To be noted: hamster. The class given is cell-based.
For series [10], the system named is West Nile virus (WNV). As to the kind of experiment: West Nile Virus virus-like particle (VLP) assay on Vero cells. In kind it is cell-based. To be noted: 24 hr, firefly luciferase reporter, 2 replicates. The method, then:
(§1) The activity of CMPD-A against a high-priority flaviviral pathogen, West Nile virus (WNV), was evaluated. The compound was tested in a West Nile Virus, virus-like particle (VLP) assay, which is a 24 hr assay on Vero cells using a firefly luciferase reporter to measure viral replication activity. In these tests IC50 values of 30 (±13) μM were obtained, with no toxicity at 100 μM using either both MTT or a renilla luciferase cellular assay (FIG. 16).

Series [11] relates to Vero cells. In kind it is cell-based. Conditions: at 100 μM; MTT or renilla luciferase cellular assay. The method, then:
as §1

The test system of series [12] is producer cells (293T). The class given is cell-based, human. The text has this: Moreover, these compounds appeared to be working at different stages of the viral life-cycle—one at an early post-entry event (CMPD-A) and the other at an assembly or post-integration event in HIV-1 replication (CMPD-D).
The test system of series [13] is Vero cells. To be noted: over the concentration range tested.
Series [14] relates to DENV2. Briefly: DENV2 focus reduction assay using BHK cells. To be noted: Dengue virus, read-out: average IC50, DENV2 focus reduction.
Series [15] has as its system recombinant luciferase-expressing HIV-1 bearing the envelope glycoprotein of the HIV-1YU-2 strain. Briefly: Single-round infection assay, HIV-1 with YU-2 envelope on Cf2Th-CCR5 cells. To be noted: Human immunodeficiency virus 1, Cf2Th-CCR5, read-out: IC50 against HIV-1 (single-round infection).
Series [16] in a line: Single-round infection assay, infection of U87 CD4-CXCR4 target cells in presence of compound. Conditions: Human immunodeficiency virus 1, U87.CD4.CXCR4, read-out: IC50 against HIV-1.

The term CC50 denotes the concentration that lowers cell viability or growth by half. A higher CC50 goes with better tolerance by the cells. As to `O=C(O)c1ccc(-c2nc(-c3ccc4oc5ccc(-c6nc(-c7ccc(C(=O)O)cc7)[nH]c6-c6ccccc6)cc5c4c3)c(-c3ccccc3)[nH]2)cc1` [CMPD-A, 4,4′-(4,4′-(dibenzo[b,d]furan-2,8-diyl)bis(5-phenyl-1H-imidazole-4,2-diyl))dibenzoic acid], the IC50 in [1] (Human immunodeficiency virus 1, fully infectious virus, P4-R5 MAGI cell line, read-out: IC50 for replication of HIV-1IIIB) came to 89 ± 3.2 µM; in series [3], 4.95 µM; in series [4], 8.35 µM; in [5], 1430 nM; in [6], 7.66 µM; in series [7], 2370 nM. Besides, the IC50 in series [8] (human respiratory syncytial virus, RSV, Vero cells) was found to be 10.2 µM; in [10] it was 30 µM; in [14] it was 1250 nM; in series [15] it was 33.3 ± 0.31 µM; in series [16], 33.6 ± 0.31 µM. Besides, the “inhibition of HIV-1IIIB replication” value in series [1] (P4-R5 MAGI cells) is “retained the ability to inhibit”. Moreover, the “inhibition of HIV-1 92BR030 replication in PBMCs” value in series [2] is on record as “displayed no activity; also recorded: unable to inhibit; also recorded: did not affect replication”. The “activity against RSV” value in series [8] (CPE assay, up to 100 μM) is given as “active against RSV”. For the same molecule, in [9], the midpoint of cytotoxicity, the CC50, lay at 35 µM. Besides, in series [11], the “toxicity” value is “no toxicity”. The “LDH release versus untreated cells” value in [12] is recorded as “Neither CMPD-A nor CMPD-D promoted LDH release”. Besides, the “cellular toxicity against the Vero cells” value in series [13] is reported as “no cellular toxicity”.
